# Test results published in article PMC4015918, “Conjugation to a SMAC mimetic potentiates sigma-2 ligand induced tumor cell death in ovarian cancer” (Molecular Cancer, 2014).
# Entries after “also recorded” stand apart in the source; their conditions may differ.
# How the values were obtained:
# [1] = tested on: mouse 66 (mammary carcinoma) or MDA-MB-435 cells (human melanoma); set-up: method as in PMID 22201533; conditions: nude mice bearing mouse 66 or MDA-MB-435 tumors; cited from earlier work
# SKOV3 cells = assay: Blocking study: competition with uptake of fluorescent sigma-2 ligand SW120, flow cytometry; type: cell-based; conditions: SKOV3 cells pretreated 30 min with increasing concentrations, then 10 nM SW120 for 30 min
# Protocol: Figure 1 Compound structures and cell binding characteristics of SW IV-134. (A) The chemical structures of sigma-2 ligand SW43, the SMAC peptidomimetic SW IV-52, and the chemical conjugate SW IV-134. Note that the chirality of SW IV-52 is fully retained in the drug conjugate (asterisks). […] SKOV3 cells were pretreated with increasing concentration of SW IV-134, followed by incubation with SW120, prior to analysis by flow cytometry.
# SKOV3 cells (3 × 10^4/well) were seeded into 6 cm plates for 24 hours before treatment. The cells were incubated with 5, 10, 50, and 100 μM doses of SW IV-134 for 30 minutes at 37°C. After this step, 10 nM SW120 was added to the cell culture medium containing SW IV-134. After 30 minute incubation at 37°C, cells were washed twice with phosphate buffered saline (PBS) and harvested with 0.05% trypsin EDTA (Life Technologies, Grand Island, NY). The cells were centrifuged at 1000 × g for 5 minutes and pellets washed twice with PBS. Internalization of SW120 was determined by flow cytometer (FACSCalibur, BD Biosciences, San Jose, CA).
# Supplementary file 1476-4598-13-50-S2.pdf: Additional file 2: Figure S1 Receptor binding characteristics of the individual components of SW IV-134. SKOV3 cells were pretreated with increasing concentration of (A) SW43 and (B) SW IV-52, followed by incubation with SW120, prior to analysis by flow cytometry. […] Click here for file
# [2] = tested on: ovarian cancer cell lines (SKOV3, OVCAR3, HEY A8, HEY A8 MDR); assay: Cell viability (CellTiter-Glo) in a panel of four ovarian cancer cell lines; type: cell-based; conditions: increasing doses, 18 hours
# Protocol: (A) SKOV3, (B) OVCAR3 (C) HEY A8 and (D) HEY A8 MDR cells were treated with increasing doses of SW43, SW IV-52, SW43 plus SW IV-52, and SW IV-134 for 18 hours. Cell viability was determined by CellTiter-Glo assays [p < 0.015 (A), NS (B), p < 0.017 (C), p < 0.034 (D), one-way ANOVA].
# Cells (1 × 10^4) were seeded into 96 well plates. Treatment as described in the figure legends was initiated the following day. Cell viability was determined 18 hours after treatment using CellTiter-Glo Luminiscent Viability Assay (Promega, Madison, WI). Data were recorded with a SpectraMax Gemini microplate spectrofluorometer, Molecular Devices (Silicon Valley, CA).
Compound,Tumor-selective uptake of SW120 in vivo [1],Blocking of SW120 uptake (SKOV3 cells),Killing activity (cell viability) [2]
COc1ccc(C)cc1NC(=O)OC1CC2CCCC(C1)N2CCCCCCCCCCNc1ccc([N+](=O)[O-])c2nonc12 (stereo not drawn) [SW120],taken up selectively by proliferating tumor cells and not by the generally quiescent peripheral blood mononuclear cells,,
CN[C@@H](C)C(=O)N[C@H](C(=O)N1CCC[C@H]1C(=O)N[C@@H]1CCCc2ccccc21)C(C)(C)C [SW IV-52],,nearly incapable of blocking the uptake of SW120; also recorded: nearly incapable of interfering with the uptake of SW120,minimal single-agent activity at concentrations up to 200 μM
